In patent US9624214B2, “Amino-substituted imidazo[1,2-a]pyridinecarboxamides and their use” (BAYER PHARMA AKTIENGESELLSCHAFT, priority 2012, dated 2017):

These compounds were tested against T1, recombinant guanylate cyclase reporter cell line (Rattus norvegicus, UniProt P19686+P20595) (assay: B-2. Action on recombinant guanylate cyclase reporter cell line). Conditions: MEC = minimal effective concentration; in some cases mean values from individual determinations.
T1 construct: expressed in transfected cells
T1 sequence (P20595 1-619): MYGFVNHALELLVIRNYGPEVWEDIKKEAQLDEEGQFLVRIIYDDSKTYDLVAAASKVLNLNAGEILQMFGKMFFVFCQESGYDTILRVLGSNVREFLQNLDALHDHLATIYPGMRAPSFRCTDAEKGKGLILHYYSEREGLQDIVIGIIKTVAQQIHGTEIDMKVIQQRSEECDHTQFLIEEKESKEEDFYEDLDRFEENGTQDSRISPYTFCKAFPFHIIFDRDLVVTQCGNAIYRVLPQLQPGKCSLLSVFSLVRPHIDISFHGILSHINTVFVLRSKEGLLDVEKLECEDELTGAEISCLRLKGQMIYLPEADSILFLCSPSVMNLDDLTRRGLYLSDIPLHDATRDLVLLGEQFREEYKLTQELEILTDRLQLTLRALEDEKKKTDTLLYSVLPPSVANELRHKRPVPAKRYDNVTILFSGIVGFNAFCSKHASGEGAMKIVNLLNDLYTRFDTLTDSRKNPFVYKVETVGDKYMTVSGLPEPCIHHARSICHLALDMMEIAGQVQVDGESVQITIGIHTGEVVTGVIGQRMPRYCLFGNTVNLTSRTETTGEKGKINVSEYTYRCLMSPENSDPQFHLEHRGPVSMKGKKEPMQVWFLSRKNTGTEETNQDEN
T1 sequence (P19686 1-690): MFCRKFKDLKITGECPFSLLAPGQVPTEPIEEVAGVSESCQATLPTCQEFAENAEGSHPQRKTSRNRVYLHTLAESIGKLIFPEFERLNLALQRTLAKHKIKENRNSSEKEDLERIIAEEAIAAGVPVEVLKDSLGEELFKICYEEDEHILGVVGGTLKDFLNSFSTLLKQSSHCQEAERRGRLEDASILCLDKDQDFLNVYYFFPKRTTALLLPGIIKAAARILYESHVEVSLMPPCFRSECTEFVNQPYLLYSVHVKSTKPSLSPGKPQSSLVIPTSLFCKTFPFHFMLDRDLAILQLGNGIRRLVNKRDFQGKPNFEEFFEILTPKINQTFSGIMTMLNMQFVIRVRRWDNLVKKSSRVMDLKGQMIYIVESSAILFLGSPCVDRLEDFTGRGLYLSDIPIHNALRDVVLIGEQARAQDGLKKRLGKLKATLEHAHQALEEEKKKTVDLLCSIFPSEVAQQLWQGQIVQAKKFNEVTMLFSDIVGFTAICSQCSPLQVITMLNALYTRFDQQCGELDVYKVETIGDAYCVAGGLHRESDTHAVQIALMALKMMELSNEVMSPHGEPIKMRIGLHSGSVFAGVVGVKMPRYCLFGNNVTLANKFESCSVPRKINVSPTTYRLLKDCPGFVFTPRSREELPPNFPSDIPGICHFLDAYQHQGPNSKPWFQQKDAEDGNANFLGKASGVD
Assay type: cell-based
Summary of the method: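 Each compound is applied to a cell line engineered with a reporter for recombinant guanylate cyclase. The minimal effective concentration is then noted, in part as a mean across separate determinations.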

| SMILES | MEC [µM] |
| --- | --- |
| Cc1cc(OCc2c(F)cccc2F)c2nc(C)c(C(=O)NCC(C)(N)Cc3ccccn3)n2c1 (racemic) [Example 297, rac-N-[2-amino-2-methyl-3-(pyridin-2-yl)propyl]-8-[(2,6-difluorobenzyl)oxy]-2,6-dimethylimidazo[1,2-a]pyridine-3-carboxamide] | 0.10 |
| Cc1cc(OCc2c(F)cccc2F)c2nc(C)c(C(=O)NC3CCNCC3(F)F)n2c1 (racemic) [Example 299, rac-8-[(2,6-difluorobenzyl)oxy]-N-(3,3-difluoropiperidin-4-yl)-2,6-dimethylimidazo[1,2-a]pyridine-3-carboxamide] | 0.10 |
| CCCC(C)(N)CNC(=O)c1c(CC)nc2c(OCc3c(F)cccc3F)cc(C)cn12 (racemic) [Example 301, rac-N-(2-amino-2-methylpentyl)-8-[(2,6-difluorobenzyl)oxy]-2-ethyl-6-methylimidazo[1,2-a]pyridine-3-carboxamide] | 0.10 |
| Cc1cc(OCc2c(F)cccc2F)c2nc(C)c(C(=O)NC3CCNC(C(F)(F)F)C3)n2c1 (racemic) [Example 302, rac-8-[(2,6-difluorobenzyl)oxy]-2,6-dimethyl-N-[2-(trifluoromethyl)piperidin-4-yl]imidazo[1,2-a]pyridine-3-carboxamide] | 0.10 |
| CCCC(C)(N)CNC(=O)c1c(C)nc2c(OCc3cccc(F)c3F)cc(C)cn12 (racemic) [Example 303, rac-N-(2-amino-2-methylpentyl)-8-[(2,3-difluorobenzyl)oxy]-2,6-dimethylimidazo[1,2-a]pyridine-3-carboxamide] | 0.20 |
| Cc1cc(OCc2c(F)cccc2F)c2nc(C)c(C(=O)NCC(C)(N)Cc3nc4ccccc4s3)n2c1 (racemic) [Example 310, rac-N-[2-amino-3-(1,3-benzothiazol-2-yl)-2-methylpropyl]-8-[(2,6-difluorobenzyl)oxy]-2,6-dimethylimidazo[1,2-a]pyridine-3-carboxamide] | 0.30 |
| CCCC(C)(N)CNC(=O)c1c(C)nc2c(OCc3c(F)c(F)cc(F)c3F)cc(C)cn12 (racemic) [Example 311, rac-N-(2-amino-2-methylpentyl)-2,6-dimethyl-8-[(2,3,5,6-tetrafluorobenzyl)oxy]imidazo[1,2-a]pyridine-3-carboxamide] | 0.30 |
| Cc1cc(OCc2c(F)cccc2F)c2nc(C)c(C(=O)NC3CNCC(F)(F)C3)n2c1 (racemic) [Example 312, rac-8-[(2,6-difluorobenzyl)oxy]-N-(5,5-difluoropiperidin-3-yl)-2,6-dimethylimidazo[1,2-a]pyridine-3-carboxamide] | 0.30 |
| Cc1cc(OCc2c(F)cccc2F)c2nc(C)c(C(=O)NC3CCCCNC3)n2c1 (racemic) [Example 316, rac-N-(azepan-3-yl)-8-[(2,6-difluorobenzyl)oxy]-2,6-dimethylimidazo[1,2-a]pyridine-3-carboxamide] | 0.30 |
| CCCC(C)(N)CNC(=O)c1c(C)nc2c(OCc3cccc(C)c3F)cc(C)cn12 (racemic) [Example 317, rac-N-(2-amino-2-methylpentyl)-8-[(2-fluoro-3-methylbenzyl)oxy]-2,6-dimethylimidazo[1,2-a]pyridine-3-carboxamide] | 0.30 |
| Cc1cc(OCc2c(F)cccc2F)c2nc(C)c(C(=O)NC3(C)CC3(C)N)n2c1 (racemic) [Example 320, rac-N-(2-amino-1,2-dimethylcyclopropyl)-8-[(2,6-difluorobenzyl)oxy]-2,6-dimethylimidazo[1,2-a]pyridine-3-carboxamide (Racemate)] | 0.30 |
| Cc1cc(OCc2c(F)cccc2F)c2nc(C)c(C(=O)NCC(C)(N)Cc3ncn(-c4cc(C)on4)n3)n2c1 (racemic) [Example 321, rac-N-{2-amino-2-methyl-3-[1-(5-methyl-1,2-oxazol-3-yl)-1H-1,2,4-triazol-3-yl]propyl}-8-[(2,6-difluorobenzyl)oxy]-2,6-dimethylimidazo[1,2-a]pyridine-3-carboxamide] | 0.30 |
| Cc1cc(OCc2c(F)cccc2F)c2nc(C)c(C(=O)NC3CC3N)n2c1 (racemic) [Example 330, rac-N-(2-aminocyclopropyl)-8-[(2,6-difluorobenzyl)oxy]-2,6-dimethylimidazo[1,2-a]pyridine-3-carboxamide] | 0.30 |
| Cc1cc(OCc2c(F)cccc2F)c2nc(C)c(C(=O)NC3CCC3(C)N)n2c1 (racemic) [Example 331, rac-N-(2-amino-2-methylcyclobutyl)-8-[(2,6-difluorobenzyl)oxy]-2,6-dimethylimidazo[1,2-a]pyridine-3-carboxamide] | 0.30 |
| Cc1cc(OCc2c(F)cccc2F)c2nc(C)c(C(=O)NC3(C)CCC3(C)N)n2c1 (racemic) [Example 335, rac-N-[2-amino-1,2-dimethylcyclobutyl]-8-[(2,6-difluorobenzyl)oxy]-2,6-dimethylimidazo[1,2-a]pyridine-3-carboxamide] | 0.30 |
| CCCC(C)(N)CNC(=O)c1c(C)nc2c(OCc3ccccc3)cc(C)cn12 (racemic) [Example 340, rac-N-(2-amino-2-methylpentyl)-8-(benzyloxy)-2,6-dimethylimidazo[1,2-a]pyridine-3-carboxamide] | 1.00 |
| Cc1cc(OCc2c(F)cccc2F)c2nc(C)c(C(=O)NC3C(N)C3(C)C)n2c1 (racemic) [Example 341, rac-N-(3-amino-2,2-dimethylcyclopropyl)-8-[(2,6-difluorobenzyl)oxy]-2,6-dimethylimidazo[1,2-a]pyridine-3-carboxamide (Racemate)] | 0.30 |
| Cc1cc(OCc2c(F)cccc2F)c2nc(C)c(C(=O)NC3CCC4NCCC43)n2c1 (racemic) [Example 342, rac-8-[(2,6-Difluorobenzyl)oxy]-2,6-dimethyl-N-(octahydrocyclopenta[b]pyrrol-4-yl)imidazo[1,2-a]pyridine-3-carboxamide] | 1.00 |
| CCCC(C)(N)CNC(=O)c1c(C)nc2c(OCc3ccccc3Cl)cc(C)cn12 (racemic) [Example 343, rac-N-(2-amino-2-methylpentyl)-8-[(2-chlorobenzyl)oxy]-2,6-dimethylimidazo[1,2-a]pyridine-3-carboxamide] | 1.00 |
| Cc1cc(OCc2c(F)cccc2F)c2nc(C)c(C(=O)NCC3CN(Cc4ccccc4)CCO3)n2c1 (racemic) [Example 344, rac-N-[(4-benzylmorpholin-2-yl)methyl]-8-[(2,6-difluorobenzyl)oxy]-2,6-dimethylimidazo[1,2-a]pyridine-3-carboxamide] | 1.00 |
| Cc1cc(OCc2c(F)cccc2F)c2nc(C)c(C(=O)NCC3CNCCO3)n2c1 (racemic) [Example 345, rac-8-[(2,6-Difluorobenzyl)oxy]-2,6-dimethyl-N-(morpholin-2-ylmethyl)imidazo[1,2-a]pyridine-3-carboxamide] | 1.00 |
| Cc1cc(OCc2c(F)cccc2F)c2nc(C)c(C(=O)NC34CCC3CNC4)n2c1 (racemic) [Example 346, rac-N-(3-azabicyclo[3.2.0]hept-1-yl)-8-[(2,6-difluorobenzyl)oxy]-2,6-dimethylimidazo[1,2-a]pyridine-3-carboxamide] | 1.00 |
| Cc1cc(OCc2c(F)cccc2F)c2nc(C)c(C(=O)NC3CNCC3F)n2c1 (racemic) [Example 347, rac-8-[(2,6-Difluorobenzyl)oxy]-N-(4-fluoropyrrolidin-3-yl)-2,6-dimethylimidazo[1,2-a]pyridine-3-carboxamide] | 1.00 |
| CCCC(C)(N)CNC(=O)c1c(C)nc2c(OCc3cccc(F)c3)cc(C)cn12 (racemic) [Example 348, rac-N-(2-amino-2-methylpentyl)-8-[(3-fluorobenzyl)oxy]-2,6-dimethylimidazo[1,2-a]pyridine-3-carboxamide] | 1.00 |
| Cc1cc(OCc2c(F)cccc2F)c2nc(C)c(C(=O)NCC(C)(N)COc3ccc(F)c(F)c3)n2c1 (racemic) [Example 350, rac-N-[2-amino-3-(3,4-difluorophenoxy)-2-methylpropyl]-8-[(2,6-difluorobenzyl)oxy]-2,6-dimethylimidazo[1,2-a]pyridine-3-carboxamide] | 1.00 |
